The subject of this assay is HIV-1 NL4-3. The assay is described as follows: Drug susceptibility assay in PHA-activated PBMCs (HIV p24 ELISA day 7). It is filed as cell-based. The following applies: for decrease of ART EC50 value at 1 μM IM: HIV-1 NL4-3 in PBMCs, EC50 without IM vs with 1 μM IM; for EC50: Human immunodeficiency virus 1, NL43, PBMC, 168 h, HIV NL4-3 in PBMCs, p24 day 7, (95% CI) in cell; for P24: PBMCs, NL4-3, day 7. On the procedure: The ARTs tenofovir, raltegravir and indinavir were obtained from the NIH AIDS Research and Reference Reagent Program (Gaithersburg, MD). Drug susceptibility assays were performed in PBMCs as previously. Briefly, donor PBMCs were activated by culture with phytohemagglutinin (PHA) for 3 days. Activated PBMCs were infected with HIV (M.O.I of 0.001) for 2 hours in the absence of IM or ARTs, washed to remove non-adsorbed virus, and plated in culture medium containing IL-2 and various dilutions of IM and ARTs alone and in combination. On day 3, fresh medium with fresh drug was added to the cultures. On day 7, cultures were evaluated for HIV production by measuring HIV p24 levels in the culture supernatants by ELISA (PerkinElmer Life Sciences, Inc., Boston, Massachusetts). Data were normalized to p24 levels in drug untreated controls (100%) and EC50 values determined by fitting the data to sigmoidal dose-response (variable slope) curves using GraphPad Prism 5.0 software.
A potential use of CDK9 inhibitor for the treatment of HIV will probably be in combination with ARTs from other classes. We thus evaluated the antiviral interaction between IM and ARTs from the NRTI, integrase and protease inhibitor classes in PBMCs infectivity assays in vitro. We used the virus strain HIV-1 NL4-3 to ensure a robust viral replication in the assays. Although HIV-1 NL4-3 differs from HIV-1 BaL in usage of coreceptor for cell entry, it is expected to have similar sensitivity to the tested ARTs. […] These enhancements of ART potencies by IM are consistent with targeting of different steps of the HIV cycle by IM and the tested ARTs.
Background: ELISA stands for enzyme-linked immunosorbent assay.

[1] abbreviates: read-out: Geometric mean ART EC50, + 1μM IM.
Where [2] appears, read: read-out: Geometric mean ART EC50, No IM.

Read-outs that look alike come from different tables or passages of the source.

By EC50 is commonly meant the concentration giving half of the maximal effect. In the case of `CC(C)(C)NC(=O)[C@@H]1CN(Cc2cccnc2)CCN1C[C@@H](O)C[C@@H](Cc1ccccc1)C(=O)N[C@H]1c2ccccc2C[C@H]1O` [IND, indinavir], the “decrease of ART EC50 value at 1 μM IM” value is 2.2 fold. Besides, the EC50 (+ 1μM IM, read-out: Geometric mean ART EC50) was found to be 3.55 nM. Besides, the EC50 (No IM, read-out: Geometric mean ART EC50) is 7.74 nM. Besides, the P24 (IND 1.8 nM, + IM) is 2.00 ng/mL. In addition, the P24 (IND 1.8 nM, No IM) is 41.00 ng/mL. The P24 (IND 5.5 nM, + IM) was 2.30 ng/mL. Further, the P24 (IND 5.5 nM, No IM) is 37.00 ng/mL. Moreover, the P24 (IND 16.6 nM, + IM) is 0.70 ng/mL. Also, the P24 (IND 16.6 nM, No IM) stood at 17.00 ng/mL. Besides, the P24 (IND 50 nM, + IM) was determined as 0.01 ng/mL. Further, the P24 (IND 50 nM, No IM) stood at 0.01 ng/mL. The P24 (IND 150 nM, + IM) is 0.01 ng/mL. Moreover, the P24 (IND 150 nM, No IM) turned out to be 0.01 ng/mL.

As to `C[C@H](Cn1cnc2c(N)ncnc21)OCP(=O)(O)O` [TDF, tenofovir], the “decrease of ART EC50 value at 1 μM IM” value came to 3 fold. Further, the EC50 under setting [1] was 190 nM. In addition, the EC50 under setting [2] was determined as 600 nM. In addition, the P24 (TDF 0.01 µM, + IM) came out at 10.0 ng/mL. The P24 (TDF 0.01 µM, No IM) stood at 63.0 ng/mL. The P24 (TDF 0.03 µM, + IM) came out at 9.0 ng/mL. The P24 (TDF 0.03 µM, No IM) came out at 61.0 ng/mL. Under “TDF 0.1 µM, + IM”, the P24 amounted to 6.6 ng/mL. The P24 (TDF 0.1 µM, No IM) was 48.0 ng/mL. Further, the P24 (TDF 0.3 µM, + IM) turned out to be 3.8 ng/mL. In addition, under “TDF 0.3 µM, No IM”, the P24 amounted to 35.0 ng/mL. The P24 (TDF 1 µM, + IM) is 1.7 ng/mL. Also, under “TDF 1 µM, No IM”, the P24 was 17.0 ng/mL. Moreover, the P24 (TDF 3 µM, + IM) turned out to be 0.7 ng/mL. The P24 (TDF 3 µM, No IM) turned out to be 4.0 ng/mL. Further, under “TDF 10 µM, + IM”, the P24 stood at 0.3 ng/mL. Also, the P24 (TDF 10 µM, No IM) amounted to 0.6 ng/mL.

Turning to `Cc1nnc(C(=O)NC(C)(C)c2nc(C(=O)NCc3ccc(F)cc3)c(O)c(=O)n2C)o1` [RAL, raltegravir], the “decrease of ART EC50 value at 1 μM IM” value worked out at 3.3 fold. Besides, under setting [1], the EC50 was determined as 2.12 nM. Further, the EC50 under setting [2] turned out to be 6.98 nM. For the same molecule, for the setting “RAL 0.05 nM, + IM”, the P24 was determined as 9.50 ng/mL. Also, the P24 (RAL 0.05 nM, No IM) is 27.0 ng/mL. Moreover, the P24 (RAL 0.15 nM, + IM) was 6.00 ng/mL. Besides, the P24 (RAL 0.15 nM, No IM) amounted to 23.0 ng/mL. Moreover, the P24 (RAL 0.5 nM, + IM) turned out to be 6.50 ng/mL. Moreover, the P24 (RAL 0.5 nM, No IM) stood at 27.0 ng/mL. Further, under “RAL 1.5 nM, + IM”, the P24 is 5.00 ng/mL. The P24 (RAL 1.5 nM, No IM) is 26.0 ng/mL. Besides, for the setting “RAL 5 nM, + IM”, the P24 is 2.30 ng/mL. For the same molecule, the P24 (RAL 5 nM, No IM) turned out to be 17.0 ng/mL. The P24 (RAL 15 nM, + IM) stood at 1.10 ng/mL. Further, the P24 (RAL 15 nM, No IM) turned out to be 2.8 ng/mL. Also, the P24 (RAL 45 nM, + IM) is 0.01 ng/mL. Also, the P24 (RAL 45 nM, No IM) came out at 0.6 ng/mL.

Source of the values: PMC5560554, “Targeting of CDK9 with indirubin 3’-monoxime safely and durably reduces HIV viremia in chronically infected humanized mice” (PLoS ONE, 2017).
